Source: patent US20210177982A1, “MUCUS-PENETRATING PEPTIDES, DELIVERY VEHICLES AND METHODS OF THERAPY” (DNALite Therapeutics, Inc., priority 2018, published 2021)
Ends that are not written are not given here.

Tested on: mucin from porcine stomach
Experiment: Peptide mucin interaction assay (dynamic light scattering)
Assay type: binding
Details: peptide conjugated to DSPE-PEG2k-DBCO at 0.08% mol on MVL5/DOPC/Chol base system with DNA; 0.5 mg/mL mucin, sample:mucin 5:2
Protocol: DSPE-PEG2k-DBCO (Avanti Polar Lipids) was hydrated in water and agitated to form a transparent solution. Synthesized peptides with a lysine containing an azide on the N-terminus were conjugated to it. 2.5× moles of the azide peptides were added to the lipid mix and were left to react overnight. 10× moles of sodium azide were added to the reaction to quench it.
Thin film hydration was used to make a lipid base system composed of MVL5/DOPC/Chol (30/60/10% mol). Briefly, the lipids were dissolved in chloroform: methanol (9:1) and mixed. The lipids were then dried using a rotovap and hydrated in a HEPES-glucose buffer (10 mM HEPES, 230 mM Glucose, pH 7.4) for a final concentration of 1 mM. The lipid suspension was extruded through a 200 nm pore size filter for 20 passes using the NanoSizer MINI (T&T Scientific Corporation, Tennessee). An appropriate amount of DNA was added to the lipid base system for a charge ratio of +3 (assuming MVL5 has a charge ratio of +3 at neutral pH) and the solution was mixed thoroughly and let rest for 20 min. DSPE-PEG2k-DBCO conjugated peptides were added to the base system for a final lipid concentration of 0.08% mol. DSPE-SS-PEG2k was added to the base system for a final lipid concentration of 5% mol. The solutions were incubated for 1 h at 60° C.
For each sample, purified 0.5 mg/mL mucin from porcine stomach (Sigma Aldrich) was added to the sample at a sample:mucin volume ratio of 5:2. Dynamic light scattering was used to measure changes in light scattering in the presence of and without mucin for each sample. […] Thus SEQ ID NO. […] Thus SEQ ID NO. […] Thus SEQ ID NO. […] 4 conjugated systems, where peak shifting was not observed in the presence of mucin. Thus SEQ ID NO. […] 5 conjugated systems where peak shifting was not observed in the presence of mucin. Thus SEQ ID NO. […] 6 conjugated systems where peak shifting was not observed in the presence of mucin. Thus SEQ ID NO. […] FIG. 11 show SEQ ID NO. 7 conjugated systems where peak shifting was not observed in the presence of mucin. Thus SEQ ID NO. […] Thus SEQ ID NO. […] Thus SEQ ID NO. […] Thus, SEQ ID NO. […] Thus SEQ ID NO. […] FIG. 16 show SEQ ID NO. […] Thus SEQ ID NO.

Substance | interaction with mucin (shift in DLS light intensity peak)
HPGSPFPPEHRP [SEQ ID NO. 12] | found to be interacting with mucin
KTIEAHPPYYAS [SEQ ID NO. 7] | found not to interact with mucin
LIIYRDLISH [SEQ ID NO. 36, reference compound] | disappearance of the system peak was observed demonstrating mucin interaction
LSTAADMQGVVTDGMASGLDKDYLKPDD [SEQ ID NO. 22] | found to not interact with mucin
MAKPAQGAKY [SEQ ID NO. 2] | found to interact with mucin
MATKGGTVKA [SEQ ID NO. 1] | found not to interact with mucin
MSVTGGKMAP [SEQ ID NO. 3] | found to be interacting with mucin
NIENSTLATPLS [SEQ ID NO. 32] | found to be mucin interacting
NSGTMQSASRAT [SEQ ID NO. 5] | found not to interact with mucin
NYTTYKSHFQDR [SEQ ID NO. 9] | found to interact with mucin
PSSSSSSRIGDP [SEQ ID NO. 23] | found to be mucin interacting
QAASRVENYMHR [SEQ ID NO. 6] | found not to interact with mucin
RQSAGVL [SEQ ID NO. 14] | lack of interaction with mucin
RQSAGVLGFAPTNIDDTSFHA [SEQ ID NO. 16] | found to be mucin interacting
RQWVGDRA [SEQ ID NO. 17] | found to be mucin interacting
RWQVGDRADGE [SEQ ID NO. 19] | found to be mucin interacting
STSTVSTPVPPPVDDTTWLQSAS [SEQ ID NO. 15] | found to be mucus interacting
TPKTMTQTYDFS [SEQ ID NO. 4] | found not to interact with mucin
TSHTDAPPARSP [SEQ ID NO. 13] | found to be interacting with mucin
TSHTDAPPARSP [SEQ ID NO. 34] | found to be mucin interacting
VGDDSGGFSTTVSTEQNVPDPQV [SEQ ID NO. 20] | not found to be mucin interacting
YPYDANHTRSPT (not fully specified (N-terminus)) [SEQ ID NO. 10] | found to be interacting with mucin
